Reference: ChEMBL document CHEMBL3124876, “A perylene derivative regulates HIF-1α and Stat3 signaling pathways” (Bioorg Med Chem, 2014)
The source made the active and inactive calls. The calls are words filed in the database; no cut-off is given here.

Assays:
[1] = target: Proto-oncogene tyrosine-protein kinase Src (Homo sapiens) (UniProt P12931); assay: Inhibition of […] phosphorylation in human MDA-MB-231 cells at 0.05 to 10 uM by Western blotting analysis; type: cell-based
[2] = target: Tyrosine-protein kinase JAK2 (Homo sapiens) (UniProt O60674); assay: Inhibition of JAK2 phosphorylation in human MDA-MB-231 cells at 0.05 to 10 uM by Western blotting analysis; type: cell-based
Chain of Tyrosine-protein kinase JAK2 (Homo sapiens) (O60674 whole entry): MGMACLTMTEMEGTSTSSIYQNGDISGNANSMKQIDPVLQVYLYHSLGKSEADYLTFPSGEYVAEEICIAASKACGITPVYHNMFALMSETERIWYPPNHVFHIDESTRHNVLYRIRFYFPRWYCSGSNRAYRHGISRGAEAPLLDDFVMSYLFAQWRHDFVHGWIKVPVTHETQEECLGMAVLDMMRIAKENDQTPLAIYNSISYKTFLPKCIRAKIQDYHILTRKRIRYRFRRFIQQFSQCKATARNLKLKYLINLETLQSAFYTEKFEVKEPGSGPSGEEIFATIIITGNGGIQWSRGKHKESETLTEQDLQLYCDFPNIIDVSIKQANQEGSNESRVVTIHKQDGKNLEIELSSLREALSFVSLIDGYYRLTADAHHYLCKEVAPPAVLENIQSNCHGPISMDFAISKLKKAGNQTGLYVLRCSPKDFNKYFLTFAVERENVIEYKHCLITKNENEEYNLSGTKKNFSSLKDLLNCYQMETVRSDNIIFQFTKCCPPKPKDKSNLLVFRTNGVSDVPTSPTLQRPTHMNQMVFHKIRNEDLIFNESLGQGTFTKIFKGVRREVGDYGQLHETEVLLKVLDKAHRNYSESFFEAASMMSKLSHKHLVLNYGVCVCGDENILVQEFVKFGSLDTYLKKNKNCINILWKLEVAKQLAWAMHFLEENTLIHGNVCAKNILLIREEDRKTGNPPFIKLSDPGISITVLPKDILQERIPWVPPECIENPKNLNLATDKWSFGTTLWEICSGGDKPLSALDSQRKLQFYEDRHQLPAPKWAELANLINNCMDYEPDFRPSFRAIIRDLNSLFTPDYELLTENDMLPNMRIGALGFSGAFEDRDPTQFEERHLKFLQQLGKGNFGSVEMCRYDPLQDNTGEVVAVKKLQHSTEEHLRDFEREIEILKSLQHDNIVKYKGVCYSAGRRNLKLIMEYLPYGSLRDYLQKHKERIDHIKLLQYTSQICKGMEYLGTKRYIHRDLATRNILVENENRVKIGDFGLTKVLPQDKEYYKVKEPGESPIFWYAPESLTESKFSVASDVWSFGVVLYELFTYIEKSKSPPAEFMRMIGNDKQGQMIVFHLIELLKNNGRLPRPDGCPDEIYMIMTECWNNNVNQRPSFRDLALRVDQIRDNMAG

[3] = target: Histone acetyltransferase p300 (Homo sapiens) (UniProt Q09472); assay: Inhibition of P300 in human MDA-MB-468 cells at 1 to 20 uM by Western blotting analysis; type: cell-based
Chain of Histone acetyltransferase p300 (Homo sapiens) (Q09472 whole entry): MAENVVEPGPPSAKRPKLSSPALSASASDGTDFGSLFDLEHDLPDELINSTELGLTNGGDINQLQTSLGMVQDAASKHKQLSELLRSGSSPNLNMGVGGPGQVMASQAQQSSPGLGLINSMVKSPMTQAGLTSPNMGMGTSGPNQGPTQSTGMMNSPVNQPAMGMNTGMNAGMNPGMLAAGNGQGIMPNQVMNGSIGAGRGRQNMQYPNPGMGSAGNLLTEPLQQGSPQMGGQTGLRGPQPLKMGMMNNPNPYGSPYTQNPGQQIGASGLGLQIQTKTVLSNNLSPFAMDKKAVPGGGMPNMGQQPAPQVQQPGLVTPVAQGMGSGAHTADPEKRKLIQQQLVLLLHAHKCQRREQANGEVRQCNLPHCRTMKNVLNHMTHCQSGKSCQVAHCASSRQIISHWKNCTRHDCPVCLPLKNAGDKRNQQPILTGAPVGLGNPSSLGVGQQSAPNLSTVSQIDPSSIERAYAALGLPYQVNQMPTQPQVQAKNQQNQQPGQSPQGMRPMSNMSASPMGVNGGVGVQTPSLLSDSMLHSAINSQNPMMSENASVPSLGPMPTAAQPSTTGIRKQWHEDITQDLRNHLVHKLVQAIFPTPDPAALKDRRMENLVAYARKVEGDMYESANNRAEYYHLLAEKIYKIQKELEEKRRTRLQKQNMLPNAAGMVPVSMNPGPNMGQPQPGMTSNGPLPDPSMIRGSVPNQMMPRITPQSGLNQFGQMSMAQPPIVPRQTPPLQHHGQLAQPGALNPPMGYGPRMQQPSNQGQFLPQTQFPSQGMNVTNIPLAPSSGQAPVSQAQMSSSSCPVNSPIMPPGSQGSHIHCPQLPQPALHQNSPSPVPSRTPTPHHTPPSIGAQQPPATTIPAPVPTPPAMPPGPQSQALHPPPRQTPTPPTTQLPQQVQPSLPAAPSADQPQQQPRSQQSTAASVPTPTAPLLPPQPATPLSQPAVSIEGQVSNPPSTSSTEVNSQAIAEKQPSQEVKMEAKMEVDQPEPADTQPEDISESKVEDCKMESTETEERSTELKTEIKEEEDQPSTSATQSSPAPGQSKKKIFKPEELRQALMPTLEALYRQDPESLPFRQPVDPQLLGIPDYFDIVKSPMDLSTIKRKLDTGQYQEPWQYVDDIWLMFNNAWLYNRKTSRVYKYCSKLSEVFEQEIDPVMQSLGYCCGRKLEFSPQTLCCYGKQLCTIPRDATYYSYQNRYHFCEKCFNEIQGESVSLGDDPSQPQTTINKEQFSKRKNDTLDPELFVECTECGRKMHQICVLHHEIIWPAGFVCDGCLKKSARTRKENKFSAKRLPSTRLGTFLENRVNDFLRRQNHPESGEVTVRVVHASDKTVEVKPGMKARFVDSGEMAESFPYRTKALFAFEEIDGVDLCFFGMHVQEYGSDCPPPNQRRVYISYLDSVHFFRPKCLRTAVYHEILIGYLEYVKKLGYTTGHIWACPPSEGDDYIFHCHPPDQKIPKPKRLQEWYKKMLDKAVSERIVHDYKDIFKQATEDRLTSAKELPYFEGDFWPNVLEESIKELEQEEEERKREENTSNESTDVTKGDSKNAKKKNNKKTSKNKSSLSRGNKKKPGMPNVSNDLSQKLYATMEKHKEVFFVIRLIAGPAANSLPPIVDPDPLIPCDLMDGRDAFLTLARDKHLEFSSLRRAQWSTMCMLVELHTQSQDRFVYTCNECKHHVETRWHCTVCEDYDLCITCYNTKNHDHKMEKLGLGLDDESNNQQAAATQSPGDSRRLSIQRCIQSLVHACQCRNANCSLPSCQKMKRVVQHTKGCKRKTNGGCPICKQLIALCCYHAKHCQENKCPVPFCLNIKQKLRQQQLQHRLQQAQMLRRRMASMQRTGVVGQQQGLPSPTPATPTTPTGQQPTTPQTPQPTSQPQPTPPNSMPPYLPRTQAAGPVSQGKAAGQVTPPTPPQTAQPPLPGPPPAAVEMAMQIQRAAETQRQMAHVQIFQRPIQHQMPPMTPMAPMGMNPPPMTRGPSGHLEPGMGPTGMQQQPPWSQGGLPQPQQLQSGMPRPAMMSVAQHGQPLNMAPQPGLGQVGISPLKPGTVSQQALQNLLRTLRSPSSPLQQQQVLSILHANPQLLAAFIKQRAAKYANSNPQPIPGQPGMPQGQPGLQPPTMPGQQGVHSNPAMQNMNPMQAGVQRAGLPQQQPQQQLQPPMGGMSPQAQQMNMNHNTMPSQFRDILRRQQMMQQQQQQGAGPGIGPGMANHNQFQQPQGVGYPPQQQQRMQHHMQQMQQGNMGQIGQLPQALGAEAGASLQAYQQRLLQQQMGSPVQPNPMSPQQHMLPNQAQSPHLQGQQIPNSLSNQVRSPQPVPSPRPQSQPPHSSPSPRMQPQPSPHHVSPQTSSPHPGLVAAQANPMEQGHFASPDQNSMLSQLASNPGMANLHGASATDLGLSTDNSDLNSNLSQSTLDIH

MDA-MB-231 [4] = assay: Reduction of total Stat3 level in human MDA-MB-231 cells at 0.05 to 20 uM by Western blotting analysis; type: functional, cell-based
[5] = target: Endothelial PAS domain-containing protein 1 (Homo sapiens) (UniProt Q99814); assay: Inhibition of HIF-2 alpha in human OVCAR3 cells at 1 to 20 uM by Western blotting analysis in hypoxia condition; type: cell-based; details: OVCAR-3
[6] = target: Signal transducer and activator of transcription 3 (Homo sapiens) (UniProt P40763); assay: Inhibition of Stat3 in human MDA-MB-231 cells assessed as inhibition of Stat3 phosphorylation at 10 uM after 18 hrs by Western blotting analysis; type: cell-based
Chain of Signal transducer and activator of transcription 3 (Homo sapiens) (P40763 whole entry): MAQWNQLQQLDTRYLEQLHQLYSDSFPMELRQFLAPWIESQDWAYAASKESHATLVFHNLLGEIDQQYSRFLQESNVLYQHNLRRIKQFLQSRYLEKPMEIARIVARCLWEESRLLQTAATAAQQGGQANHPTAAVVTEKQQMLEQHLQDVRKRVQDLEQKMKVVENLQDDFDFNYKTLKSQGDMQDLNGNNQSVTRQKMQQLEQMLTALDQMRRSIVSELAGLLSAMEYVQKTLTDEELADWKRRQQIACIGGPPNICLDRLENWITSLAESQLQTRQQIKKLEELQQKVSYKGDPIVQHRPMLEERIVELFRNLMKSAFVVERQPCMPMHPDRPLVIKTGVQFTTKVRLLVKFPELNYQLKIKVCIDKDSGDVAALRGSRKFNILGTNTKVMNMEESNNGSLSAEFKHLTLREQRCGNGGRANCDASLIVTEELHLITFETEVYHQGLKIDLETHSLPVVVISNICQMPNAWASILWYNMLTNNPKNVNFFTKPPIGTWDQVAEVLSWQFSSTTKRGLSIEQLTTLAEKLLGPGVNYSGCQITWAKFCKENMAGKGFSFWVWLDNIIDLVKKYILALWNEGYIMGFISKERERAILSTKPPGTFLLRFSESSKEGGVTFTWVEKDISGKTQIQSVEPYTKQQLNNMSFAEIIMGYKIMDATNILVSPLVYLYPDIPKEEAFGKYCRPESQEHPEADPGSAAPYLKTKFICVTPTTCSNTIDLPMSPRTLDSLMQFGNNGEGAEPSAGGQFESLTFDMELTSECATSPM

[7] = target: Signal transducer and activator of transcription 3 (Homo sapiens) (UniProt P40763); assay: Inhibition of Stat3 phosphorylation in human MDA-MB-231 cells assessed as inhibition of c-Myc expression at 1 to 20 uM by Western blotting analysis; type: cell-based
Mus musculus = assay: Toxicity in Balb nu/nu mouse assessed as change in body weight at 2 mg/kg, ip administered every other day for 10 days measured after 19 days; type: organism-based; set-up: dose 2 mg/kg, route intraperitoneal; details: in vivo, 456 h
PANC-1 [8] = assay: Antitumor activity against human PANC1 cells xenografted in Balb nu/nu mouse assessed as tumor regression at 2 mg/kg, ip administered every other day for 10 days measured after 19 days; type: functional, organism-based; set-up: dose 2 mg/kg
[9] = Antitumor activity against human PANC1 cells xenografted in Balb nu/nu mouse assessed as mean tumor weight at 2 mg/kg, ip administered every other day for 10 days measured after 19 days (reference value: 0.5 +/- 0.05 g); type: functional, PANC-1; details: route intraperitoneal
[10] = Antitumor activity against human PANC1 cells xenografted in Balb nu/nu mouse assessed as mean tumor volume at 2 mg/kg, ip administered every other day for 10 days measured after 19 days (reference value: 754 mm'3); type: functional, PANC-1; details: route intraperitoneal
MDA-MB-231 [11] = assay: Antitumor activity against human MDA-MB-231 cells xenografted in Balb nu/nu mouse assessed as reduction in tumor growth at 5 mg/kg, po administered every other day for 10 days; type: functional, organism-based; set-up: dose 5 mg/kg
MDA-MB-231 [12] = assay: Antitumor activity against human MDA-MB-231 cells xenografted in Balb nu/nu mouse assessed as reduction in tumor growth at 2 mg/kg, ip administered every other day for 10 days; type: functional, organism-based; set-up: dose 2 mg/kg
MCF7 = assay: Induction of apoptosis in human MCF7 cells assessed as reduction in cell viability at 8 uM after 12 to 48 hrs by MTT assay; type: functional, cell-based
[13] = Induction of apoptosis in human MCF10A cells assessed as reduction in cell viability at 1 to 10 uM by MTT assay; type: cell-based; details: mcf-10a
MDA-MB-231 [14] = assay: Induction of apoptosis in human MDA-MB-231 cells assessed as reduction in cell viability at 1 to 10 uM by MTT assay; type: functional, cell-based
[15] = target: Proto-oncogene tyrosine-protein kinase Src (Homo sapiens) (UniProt P12931); assay: Inhibition of Src kinase (unknown origin) phosphorylation at 10 uM after 6 hrs by cell-based Western blotting analysis
[16] = target: Proto-oncogene tyrosine-protein kinase Src (Homo sapiens) (UniProt P12931); assay: Inhibition of Src kinase (unknown origin) assessed as total SRC level at 10 uM after 6 hrs by cell-based Western blotting analysis
[17] = target: Tyrosine-protein kinase JAK2 (Homo sapiens) (UniProt O60674); assay: Inhibition of JAK2 (unknown origin) assessed as total JAK2 level at 10 uM after 6 hrs by cell-based Western blotting analysis
[18] = target: Aryl hydrocarbon receptor nuclear translocator (Homo sapiens) (UniProt P27540); assay: Inhibition of HIF-1 beta in human PC3 cells after 18 hrs by Western blotting analysis in hypoxia condition; type: cell-based; details: PC-3
[19] = target: Histone acetyltransferase p300 (Homo sapiens) (UniProt Q09472); assay: Inhibition of P300 in human PC3 cells after 18 hrs by Western blotting analysis in hypoxia condition; type: cell-based; details: PC-3
[20] = target: Hypoxia-inducible factor 1-alpha (Homo sapiens) (UniProt Q16665); assay: Inhibition of HIF-1 alpha in human PC3 cells after 18 hrs by Western blotting analysis in hypoxia condition; type: cell-based; details: PC-3
PANC-1 [21] = assay: Inhibition of ERK in human PANC1 cells at 1 to 20 uM by Western blotting analysis; type: cell-based
PANC-1 [22] = assay: Inhibition of ERK phosphorylation in human PANC1 cells at 1 to 20 uM by Western blotting analysis; type: cell-based
[23] = target: T1, Signal transducer and activator of transcription 5A (Homo sapiens) (UniProt P42229); assay: Inhibition of Stat5 phosphorylation in human PANC1 cells at 0.5 to 20 uM by Western blotting analysis; type: cell-based; details: PANC-1
T1 sequence (whole entry): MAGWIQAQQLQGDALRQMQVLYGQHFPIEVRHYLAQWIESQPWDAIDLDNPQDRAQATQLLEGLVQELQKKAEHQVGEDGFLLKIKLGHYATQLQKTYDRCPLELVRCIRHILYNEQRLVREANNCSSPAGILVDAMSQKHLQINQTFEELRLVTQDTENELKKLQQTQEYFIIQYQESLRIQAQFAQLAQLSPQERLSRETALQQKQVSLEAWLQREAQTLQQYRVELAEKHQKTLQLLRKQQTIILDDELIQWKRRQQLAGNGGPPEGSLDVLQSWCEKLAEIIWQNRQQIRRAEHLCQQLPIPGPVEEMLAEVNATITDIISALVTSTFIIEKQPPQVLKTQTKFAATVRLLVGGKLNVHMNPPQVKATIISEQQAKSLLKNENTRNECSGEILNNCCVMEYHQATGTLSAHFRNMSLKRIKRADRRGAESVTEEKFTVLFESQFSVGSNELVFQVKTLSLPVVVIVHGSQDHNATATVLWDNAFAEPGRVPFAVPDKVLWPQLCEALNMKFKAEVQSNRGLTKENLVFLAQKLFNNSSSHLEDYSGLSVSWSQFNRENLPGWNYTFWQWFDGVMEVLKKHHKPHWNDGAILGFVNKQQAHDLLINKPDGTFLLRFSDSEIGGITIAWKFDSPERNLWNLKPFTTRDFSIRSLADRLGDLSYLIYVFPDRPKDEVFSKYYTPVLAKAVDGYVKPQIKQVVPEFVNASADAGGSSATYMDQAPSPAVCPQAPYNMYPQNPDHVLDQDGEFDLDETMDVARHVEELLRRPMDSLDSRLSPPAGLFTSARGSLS

[24] = target: Signal transducer and activator of transcription 3 (Homo sapiens) (UniProt P40763); details: PANC-1, 0.5 to 20 uM
Description: Inhibition of Stat3 phosphorylation in human PANC1 cells assessed as inhibition of Bcl2 expression at 0.5 to 20 uM by Western blotting analysis in hypoxia condition

[25] = target: Signal transducer and activator of transcription 3 (Homo sapiens) (UniProt P40763); details: MDA-MB-468, 1 to 20 uM
Description: Inhibition of Stat3 phosphorylation in human MDA-MB-468 cells assessed as inhibition of Bcl2 expression at 1 to 20 uM by Western blotting analysis in hypoxia condition

[26] = target: Signal transducer and activator of transcription 3 (Homo sapiens) (UniProt P40763); details: 10 uM
Description: Inhibition of STAT3 (unknown origin) phosphorylation at 10 uM after 30 mins by cell-based Western blotting analysis

Chain of Proto-oncogene tyrosine-protein kinase Src (Homo sapiens) (P12931 2-536 limits assumed): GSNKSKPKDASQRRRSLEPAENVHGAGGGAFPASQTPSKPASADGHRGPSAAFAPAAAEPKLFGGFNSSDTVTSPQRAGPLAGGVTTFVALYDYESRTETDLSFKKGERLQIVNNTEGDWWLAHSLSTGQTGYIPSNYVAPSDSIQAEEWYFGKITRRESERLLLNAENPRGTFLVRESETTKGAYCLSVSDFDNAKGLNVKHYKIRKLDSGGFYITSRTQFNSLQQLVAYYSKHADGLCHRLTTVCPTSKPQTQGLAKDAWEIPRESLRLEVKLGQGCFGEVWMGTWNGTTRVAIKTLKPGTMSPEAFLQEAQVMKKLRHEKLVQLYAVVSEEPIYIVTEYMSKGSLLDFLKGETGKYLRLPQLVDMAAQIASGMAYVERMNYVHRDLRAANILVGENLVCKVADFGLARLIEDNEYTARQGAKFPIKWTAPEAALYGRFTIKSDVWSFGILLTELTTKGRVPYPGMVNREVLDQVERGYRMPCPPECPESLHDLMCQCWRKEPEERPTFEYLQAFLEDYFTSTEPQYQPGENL

CN(C)CCCN1C(=O)c2ccc3c4ccc5c6c(ccc(c7ccc(c2c37)C1=O)c64)C(=O)N(CCCN(C)C)C5=O
inhibition [1]: inactive | inhibition [2]: inactive | inhibition [3]: inactive | Activity (MDA-MB-231 [4]): Active | inhibition [5]: Active | inhibition [6]: Active | inhibition [7]: Active | Activity (Mus musculus): Non-toxic | Activity (PANC-1 [8]): Active | Activity [9]: 0.06 g | Activity [10]: 75 mm3 | Activity (MDA-MB-231 [11]): Active | Activity (MDA-MB-231 [12]): Active | Activity (MCF7): Active | Activity [13]: Non-toxic | Activity (MDA-MB-231 [14]): Active | inhibition [15]: inactive | inhibition [16]: inactive | inhibition [17]: inactive | inhibition [18]: inactive | inhibition [19]: inactive | inhibition [20]: Active | inhibition (PANC-1 [21]): inactive | inhibition (PANC-1 [22]): inactive | inhibition [23]: inactive | inhibition [24]: Active | inhibition [25]: Active | inhibition [26]: Active
